Measured values as given in ChEMBL document CHEMBL1154132, “Mycophenolic derivatives from Eupenicillium parvum” (J Nat Prod, 2008).
pIC50: −log10 of the molar value. Activity calls are given as the source filed them. The calls are words filed in the database; no cut-off is given here.

Experiments:
Assay type in all cases: functional, organism-based
Pseudomonas aeruginosa = assay: Antimicrobial activity against Pseudomonas aeruginosa ATCC 27853 by standard disk assay
[1] = tested on: Mycobacterium intracellulare; assay: Antimicrobial activity against Mycobacterium intracellular […] by alamar blue assay
Escherichia coli = assay: Antimicrobial activity against Escherichia coli ATCC 35218 by standard disk assay
Aspergillus fumigatus = assay: Antimicrobial activity against Aspergillus fumigatus […] by standard disk assay
Staphylococcus aureus = assay: Antimicrobial activity against methicillin-resistant Staphylococcus aureus ATCC 43300 by standard disk assay
Cryptococcus neoformans = assay: Antimicrobial activity against Cryptococcus neoformans ATCC 90113 by standard disk assay
Candida albicans = assay: Antimicrobial activity against Candida albicans ATCC 90028 by standard disk assay

Structure (SMILES) | Activity (Pseudomonas aeruginosa) | Activity [1] | Activity (Escherichia coli) | Activity (Aspergillus fumigatus) | Activity (Staphylococcus aureus) | pIC50 (Cryptococcus neoformans) | pIC50 (Candida albicans)
COC(=O)C[C@H](O)/C(C)=C/Cc1c(OC)c(C)c2c(c1OC)C(=O)OC2 | inactive | inactive | inactive | inactive | inactive | – | –
Cc1c(O)c(CC[C@H](C)C(=O)O)c(O)c2c1COC2=O | inactive | inactive | inactive | inactive | inactive | – | –
COc1c(C)c2c(c(O)c1CC[C@H](C)C(=O)O)C(=O)OC2 | inactive | inactive | inactive | inactive | – | – | –
COc1c(C)c2c(c(O)c1C/C=C(\C)CCC(=O)O)C(=O)OC2 [MYCOPHENOLIC ACID] | inactive | inactive | inactive | inactive | inactive | 4.82 | 5.10
Cc1c(O)cc(O)c2c1COC2=O | inactive | inactive | inactive | inactive | inactive | – | –
COc1c(C)c2c(c(O)c1C/C=C(\C)[C@@H](O)CC(=O)O)C(=O)OC2 | inactive | inactive | inactive | inactive | inactive | – | –
